Assay results from patent publication US20240174714A1, “TREATMENT OF SKIN DISORDERS” (priority 2021, published 2024).
≈ marks a conversion by molar mass, not a printed value.

Legend:
[1] = test system: S. aureus (USA300 MRSA, BAA-1556); test: S. aureus dermal infection model in ICR mice, CFU/skin; type: in vivo, Staphylococcus aureus; conditions: 25 hours post inoculation; topical BID at 1 and 7 h post infection, 20 μL/mouse; 6027 1% in DMSO, fusidic acid 2%
Description: Inoculum preparation. The testing strain, S. aureus USA300 MRSA (BAA-1556), was obtained from the frozen working stock and thawed at room temperature. A 0.2 mL aliquot was inoculated into 20 mL Brain-Heart Infusion broth (BHI) and then incubated at 35-37° C. with shaking (120 rpm) for 8 h. Bacterial cells in the 20 mL culture were pelleted by centrifugation at 3,500×g for 15 minutes and then re-suspended in 10 mL cold PBS (>8.0×10^9 CFU/mL, OD620 1.8-2.0). The culture was then diluted in PBS to the target inoculum of 1.0×10^7 CFU/mL. The actual bacterial counts were determined by plating dilutions onto nutrient agar (NA) plates followed by 20-24 h incubation and colony counting. The actual CFU counts were 1.04×10^7 CFU/mL.
S. aureus (USA300 MRSA, BAA-1556) dermal infection model. Groups of 5 female ICR mice weighing 24±2 g were used. Animals were anesthetized with etomidate-lipuro emulsion (20 mg/10 mL) at 20 mg/kg by intravenous (IV) injection, and then the fur on the back was removed by an electric shaver, and the epidermal layer was disrupted with an abrasive paper. Mice were inoculated topically (TOP) on the wound area with S. aureus (MRSA, BAA-1556) suspension, 5 μL/mouse. The target inoculation density was 5×10^4 CFU/mouse and the actual inoculum count 5.2×10^4 CFU/mouse. Animals were housed separately after infection. Compound 6027 in DMSO at 1% was administered topically (TOP) twice (BID) at 1 and 7 h post infection. Reference control agent, fusidic acid cream at 20 mg/gram (2%), was administered TOP BID at 1 and 7 h post infection. One infected and untreated group was sacrificed at 1 h after infection for the initial (baseline) bacterial counts. The dose volumes were 20 μL/mouse for all dosing groups.
Animals were sacrificed at 1 or 25 h after inoculation with CO2 asphyxiation. The infected skin samples of the wound infection (around 2 cm 2 areas) were excised and were homogenized in 1 mL PBS (pH 7.4) with a polytron homogenizer. A 0.1 mL aliquot of each homogenate was used for serial 10-fold dilutions and plated onto NA plates for bacterial enumeration. The bacterial counts (CFU/skin) in skin tissues were calculated and the percentage decrease in counts compared to the corresponding vehicle control (placebo) was calculated with the following formula: Decrease (%)=[(CFU/skin of placebo —CFU/skin of treatment)/(CFU/skin of placebo)]×100%.

[2] = test system: Staphylococcus aureus ECL 2963646; test: microbe, parasite or virus in culture; type: cell-based; conditions: Staphylococcus aureus, ECL2963646, reference compound, read-out: MIC (Concurrent)
[3] = test system: Staphylococcus aureus NARSA VRS2; test: microbe, parasite or virus in culture; type: cell-based; conditions: Staphylococcus aureus, reference compound, read-out: MIC (Concurrent)
[4] = test system: Staphylococcus aureus NARSA NRS22; test: microbe, parasite or virus in culture; type: cell-based; conditions: Staphylococcus aureus, reference compound, read-out: MIC (Concurrent)
[5] = test system: Staphylococcus aureus ATCC BAA-1556; test: microbe, parasite or virus in culture; type: cell-based; conditions: Staphylococcus aureus, ATCCBAA1556; reference compound; ATCC BAA-1556, Methicillin resistant; read-out: MIC (Concurrent)
[6] = test system: Staphylococcus aureus NARSA NRS127; test: microbe, parasite or virus in culture; type: cell-based; conditions: Staphylococcus aureus, NRS127, read-out: MIC (Concurrent) μg/mL
[7] = test system: Streptococcus pyogenes ATCC 19615; test: MIC broth microdilution, method 1; type: cell-based; conditions: Streptococcus pyogenes, ATCC19615, reference compound, read-out: MIC (Concurrent)
[8] = test system: Staphylococcus aureus ATCC 29213; test: MIC broth microdilution, method 1; type: cell-based; conditions: Staphylococcus aureus, ATCC29213, reference compound, read-out: MIC (Concurrent)
[9] = test system: Staphylococcus aureus ATCC BAA-1717; test: microbe, parasite or virus in culture; type: cell-based; conditions: Staphylococcus aureus, ATCCBAA1717, read-out: MIC (Concurrent) μg/mL
[10] = test system: Staphylococcus aureus ATCC 33591; test: microbe, parasite or virus in culture; type: cell-based; conditions: Staphylococcus aureus, ATCC33591, read-out: MIC (Concurrent) μg/mL
[11] = test system: Staphylococcus aureus NARSA NRS382; test: microbe, parasite or virus in culture; type: cell-based; conditions: Staphylococcus aureus, NRS382, read-out: MIC (Concurrent) μg/mL
[12] = test system: Staphylococcus aureus NARSA NRS119; test: microbe, parasite or virus in culture; type: cell-based; conditions: Staphylococcus aureus, NRS119, read-out: MIC (Concurrent) μg/mL
[13] = test system: Clostridium difficile ATCC BAA-1805; test: microbe, parasite or virus in culture; conditions: Clostridioides difficile, ATCCBAA1805, read-out: MIC (Concurrent) μg/mL
Description: The antibacterial activity of inventive compounds was determined in duplicate in a Minimum Inhibitory Concentration (MIC) assay.
The antibacterial activity of 6027 acetate was measured using the in vitro broth microdilution assay under assay conditions described by the Clinical and Laboratory Standards Institute. […] Pre-formulated DMSO stock solution (26.67 mg/mL) was provided by sponsor. The 26.67 mg/mL stock solution was then diluted in DMSO to prepare a 6.4 mg/mL working stock solution. The 6.4 mg/mL working stock solution was diluted by 2-fold serial titrations in DMSO, for a total of 11 test concentrations. A 4 μl aliquot of each dilution was added to 196 of broth medium seeded with the organism suspension in wells of a 96 well plate (bacterial count: 2 −8×10^5 colony forming units/mL final). The final volume was 200 μl in each well and the final DMSO concentration was 2 percent. Test concentrations were 128 to 0.125 μg/mL.
Following incubation, the plates were visually examined, and wells were scored for growth or complete growth inhibition to define the minimum inhibitory concentration. […] Vehicle-control and Vancomycin or Linezolid, as depicted at Table 8, were used as blank and positive controls, respectively.

[14] = test system: Staphylococcus aureus NARSA NRS383; test: microbe, parasite or virus in culture; type: cell-based; conditions: Staphylococcus aureus, NRS383, read-out: MIC (Concurrent) μg/mL
[15] = test system: Staphylococcus aureus ATCC BAA-1556, USA300 MRSA; test: microbe, parasite or virus in culture; type: cell-based; conditions: Staphylococcus aureus
Description: Pre-formulated compound solution was diluted in 100% DMSO to prepare a 1.6 mg/mL working stock solution. […] The concentration range was 0.032 to 32 μg/mL.

[16] = test system: Streptococcus agalactiae ATCC 12386; test: MIC broth microdilution, method 1; type: cell-based; conditions: Streptococcus agalactiae, ATCC12386, reference compound, read-out: MIC (Concurrent)

In the case of `CC(=O)O[C@H]1C[C@@]2(C)[C@@H](C[C@@H](O)[C@H]3[C@@]4(C)CC[C@@H](O)[C@@H](C)[C@@H]4CC[C@@]32C)/C1=C(\CCC=C(C)C)C(=O)O` [Fusidic acid, fusidic acid, reference compound], the “Decrease (%) in CFU/skin vs vehicle control” value [1] is reported as 99% and the “LogCFU/skin after 25 hours (Standard error of the mean − SEM)” value [1] is reported as 4.82 (0.26) LogCFU/skin.
`CC(=O)NC[C@H]1CN(c2ccc(N3CCOCC3)c(F)c2)C(=O)O1` [Linezolid, reference compound] showed an MIC [2] of 2 µg/mL (≈ 5.93 µM), an MIC [3] of 2 µg/mL (≈ 5.93 µM) and an MIC [4] of 2 µg/mL (≈ 5.93 µM). The MIC [5] was 2 µg/mL (≈ 5.93 µM).
Compound `CN[C@H](CC(C)C)C(=O)N[C@H]1C(=O)N[C@@H](CC(N)=O)C(=O)N[C@H]2C(=O)N[C@H]3C(=O)N[C@H](C(=O)N[C@H](C(=O)O)c4cc(O)cc(O)c4-c4cc3ccc4O)[C@H](O)c3ccc(c(Cl)c3)Oc3cc2cc(c3O[C@@H]2O[C@H](CO)[C@@H](O)[C@H](O)[C@H]2O[C@H]2C[C@](C)(N)[C@H](O)[C@H](C)O2)Oc2ccc(cc2Cl)[C@H]1O` [Vancomycin, reference compound] has an MIC [6] of 1 µg/mL (≈ 0.69 µM), an MIC [7] of 0.25 µg/mL (≈ 0.173 µM) and an MIC [8] of 0.5 µg/mL (≈ 0.345 µM). For the same compound, the MIC [9] was 0.5 µg/mL (≈ 0.345 µM), the MIC [10] was 1 µg/mL (≈ 0.69 µM) and the MIC [11] was 1 µg/mL (≈ 0.69 µM). For the same compound, the MIC [12] was 1 µg/mL (≈ 0.69 µM), the MIC [13] was 0.5 µg/mL (≈ 0.345 µM) and the MIC [14] was 0.5 µg/mL (≈ 0.345 µM). For the same compound, the MIC [15] was 1 µg/mL (≈ 0.69 µM) and the MIC [16] was 0.5 µg/mL (≈ 0.345 µM).
